In patent US10131652B2, “Pyrimidinyloxy benzene derivatives as herbicides” (E. I. DU PONT DE NEMOURS AND COMPANY, priority 2014, dated 2018):
Read-outs that look alike come from different tables or passages of the source.

How the values were obtained:
Experiment in all cases: Test D pre-/postemergence plant response
Format in all cases: in vivo
[1] = system: pigweed (Amaranthus retroflexus); details: Amaranthus retroflexus; for pest or weed control at 31 g/ha: 31 g ai/ha; for pest or weed control at 62 g/ha: 62 g ai/ha; for pest or weed control at 125 g/ha: 125 g ai/ha
In short: (§1)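 Preemergence: seeds in loam/sand blend treated with test chemicals in non-phytotoxic solvent with surfactant; postemergence: plants at 2–18 cm (1- to 4-leaf stage) in peat-based medium sprayed likewise. Greenhouse 13 to 15 days, then visual rating vs controls, 0 (no effect) to 100 (complete control).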

[2] = system: barnyardgrass (Echinochloa crus-galli); details: Echinochloa crus-galli; for pest or weed control at 16 g/ha: 16 g ai/ha; for pest or weed control at 31 g/ha: 31 g ai/ha; for pest or weed control at 62 g/ha: 62 g ai/ha; for pest or weed control at 125 g/ha: 125 g ai/ha
In short: as §1

[3] = system: velvetleaf (Abutilon theophrasti); details: Abutilon theophrasti; for pest or weed control at 31 g/ha: 31 g ai/ha; for pest or weed control at 62 g/ha: 62 g ai/ha; for pest or weed control at 125 g/ha: 125 g ai/ha
In short: as §1

[4] = system: lambsquarters (Chenopodium album); details: Chenopodium album; for pest or weed control at 31 g/ha: 31 g ai/ha; for pest or weed control at 62 g/ha: 62 g ai/ha; for pest or weed control at 125 g/ha: 125 g ai/ha
In short: as §1

corn (Zea mays) = details: Zea mays; for Corn plant response rating (crop injury, 0 = no effect, 100 = complete kill) at 62 g/ha: 62 g ai/ha
In short: as §1

[5] = system: galium (catchweed bedstraw, Galium aparine); details: Galium; for pest or weed control at 31 g/ha: 31 g ai/ha; for pest or weed control at 62 g/ha: 62 g ai/ha; for pest or weed control at 125 g/ha: 125 g ai/ha
In short: as §1

[6] = system: yellow nutsedge (Cyperus esculentus); details: Cyperus; for pest or weed control at 31 g/ha: 31 g ai/ha; for pest or weed control at 62 g/ha: 62 g ai/ha; for pest or weed control at 125 g/ha: 125 g ai/ha
In short: as §1

[7] = system: Italian ryegrass (Lolium multiflorum); details: Lolium multiflorum; for pest or weed control at 31 g/ha: 31 g ai/ha; for pest or weed control at 62 g/ha: 62 g ai/ha; for pest or weed control at 125 g/ha: 125 g ai/ha
In short: as §1

[8] = system: morningglory (Ipomoea coccinea); details: Ipomoea; for pest or weed control at 31 g/ha: 31 g ai/ha; for pest or weed control at 62 g/ha: 62 g ai/ha
In short: as §1

[9] = post-emergence, Postemergence, scale 0 to 100, 0 no effect, 100 complete control, read-out: Plant response rating, Pigweed
[10] = pre-emergence, Preemergence, scale 0 to 100 (0 no effect, 100 complete control), read-out: Plant response rating, Pigweed
[11] = post-emergence, Postemergence, scale 0 to 100 (0 no effect, 100 complete control), read-out: Barnyardgrass plant response rating
[12] = post-emergence, Postemergence, scale 0 to 100, 0 no effect, 100 complete control, read-out: Plant response rating, Barnyardgrass
[13] = pre-emergence, Preemergence, scale 0 to 100 (0 no effect, 100 complete control), read-out: Plant response rating, Barnyardgrass
[14] = post-emergence, Postemergence, scale 0 to 100, 0 no effect, 100 complete control, read-out: Plant response rating, Velvetleaf
[15] = pre-emergence, Preemergence, scale 0 to 100 (0 no effect, 100 complete control), read-out: Plant response rating, Velvetleaf
[16] = post-emergence, Postemergence, scale 0 to 100, 0 no effect, 100 complete control, read-out: Plant response rating, Lambsquarters
[17] = pre-emergence, Preemergence, scale 0 to 100 (0 no effect, 100 complete control), read-out: Plant response rating, Lambsquarters
[18] = post-emergence, Postemergence, scale 0 to 100, 0 no effect, 100 complete control, read-out: Plant response rating, Galium
[19] = pre-emergence, Preemergence, scale 0 to 100 (0 no effect, 100 complete control), read-out: Plant response rating, Galium
[20] = post-emergence, Postemergence, scale 0 to 100, 0 no effect, 100 complete control, read-out: Plant response rating, Nutsedge, Yellow
[21] = pre-emergence, Preemergence, scale 0 to 100 (0 no effect, 100 complete control), read-out: Plant response rating, Nutsedge, Yellow
[22] = post-emergence, Postemergence, scale 0 to 100, 0 no effect, 100 complete control, read-out: Plant response rating, Ryegrass, Italian
[23] = pre-emergence, Preemergence, scale 0 to 100 (0 no effect, 100 complete control), read-out: Plant response rating, Ryegrass, Italian
[24] = pre-emergence, Preemergence, scale 0 to 100 (0 no effect, 100 complete control), read-out: Plant response rating, Morningglory

Work on Fc1cccc(Oc2ncc(Cl)cn2)c1-c1cc(C(F)F)no1 [Compound 144, 5-chloro-2-[2-[3-(difluoromethyl)-5-isoxazolyl]-3-fluorophenoxy]pyrimidine] yielded a pest or weed control at 31 g/ha ([1]; post-emergence, Postemergence, scale 0 to 100 (0 no effect, 100 complete control), read-out: Pigweed plant response rating) of 98%, a pest or weed control at 62 g/ha [1, 9] of 100% and a pest or weed control at 125 g/ha [1, 9] of 100%. The pest or weed control at 125 g/ha ([1]; pre-emergence, Preemergence, read-out: Plant response rating (scale 0 to 100), Pigweed) was 100%, the pest or weed control at 16 g/ha ([1]; pre-emergence, Preemergence, 16 g ai/ha, scale 0 to 100 (0 no effect, 100 complete control), read-out: Plant response rating, Pigweed) was 100% and the pest or weed control at 31 g/ha [1, 10] was 100%. The pest or weed control at 62 g/ha [1, 10] was 100%, the pest or weed control at 16 g/ha [2, 11] was 5% and the pest or weed control at 31 g/ha [2, 11] was 5%. It also gave a pest or weed control at 62 g/ha [2, 12] of 10%, a pest or weed control at 125 g/ha [2, 12] of 15% and a pest or weed control at 125 g/ha ([2]; pre-emergence, Preemergence, read-out: Plant response rating (scale 0 to 100), Barnyardgrass) of 100%. It also gave a pest or weed control at 16 g/ha [2, 13] of 70%, a pest or weed control at 31 g/ha [2, 13] of 80% and a pest or weed control at 62 g/ha [2, 13] of 100%. The pest or weed control at 31 g/ha ([3]; post-emergence, Postemergence, scale 0 to 100 (0 no effect, 100 complete control), read-out: Velvetleaf plant response rating) was 55%, the pest or weed control at 62 g/ha [3, 14] was 75% and the pest or weed control at 125 g/ha [3, 14] was 98%. It also gave a pest or weed control at 125 g/ha ([3]; pre-emergence, Preemergence, read-out: Plant response rating (scale 0 to 100), Velvetleaf) of 100%, a pest or weed control at 16 g/ha ([3]; pre-emergence, Preemergence, 16 g ai/ha, scale 0 to 100 (0 no effect, 100 complete control), read-out: Plant response rating, Velvetleaf) of 100% and a pest or weed control at 31 g/ha [3, 15] of 100%. The pest or weed control at 62 g/ha [3, 15] was 100%, the pest or weed control at 31 g/ha ([4]; post-emergence, Postemergence, scale 0 to 100 (0 no effect, 100 complete control), read-out: Lambsquarters plant response rating) was 80% and the pest or weed control at 62 g/ha [4, 16] was 90%. The pest or weed control at 125 g/ha [4, 16] was 95%, the pest or weed control at 125 g/ha ([4]; pre-emergence, Preemergence, read-out: Plant response rating (scale 0 to 100), Lambsquarters) was 100% and the pest or weed control at 16 g/ha ([4]; pre-emergence, Preemergence, 16 g ai/ha, scale 0 to 100 (0 no effect, 100 complete control), read-out: Plant response rating, Lambsquarters) was 100%. It also gave a pest or weed control at 31 g/ha [4, 17] of 100%, a pest or weed control at 62 g/ha [4, 17] of 100% and a plant injury at 16 g/ha (corn (Zea mays); post-emergence, Postemergence, 16 g ai/ha, scale 0 to 100 (0 no effect, 100 complete control), read-out: Corn plant response rating) of 5%. The plant injury at 31 g/ha (corn (Zea mays); post-emergence, Postemergence, 31 g ai/ha, scale 0 to 100 (0 no effect, 100 complete control), read-out: Corn plant response rating) was 5%, the Corn plant response rating (crop injury, 0 = no effect, 100 = complete kill) at 62 g/ha (corn (Zea mays); post-emergence, Postemergence, scale 0 to 100, 0 no effect, 100 complete control) was 10% and the Corn plant response rating (crop injury, 0 = no effect, 100 = complete kill) at 125 g/ha (corn (Zea mays); post-emergence, Postemergence, 125 g ai/ha, scale 0 to 100, 0 no effect, 100 complete control) was 5%. The plant injury at 125 g/ha (corn (Zea mays); pre-emergence, Preemergence, 125 g ai/ha, read-out: Plant response rating (scale 0 to 100), Corn) was 65%, the Corn plant response rating (crop injury, 0 = no effect, 100 = complete kill) at 16 g/ha (corn (Zea mays); pre-emergence, Preemergence, 16 g ai/ha, scale 0 to 100 (0 no effect, 100 complete control)) was 0% and the Corn plant response rating (crop injury, 0 = no effect, 100 = complete kill) at 31 g/ha (corn (Zea mays); pre-emergence, Preemergence, 31 g ai/ha, scale 0 to 100 (0 no effect, 100 complete control)) was 5%. The Corn plant response rating (crop injury, 0 = no effect, 100 = complete kill) at 62 g/ha (corn (Zea mays); pre-emergence, Preemergence, scale 0 to 100 (0 no effect, 100 complete control)) was 15%, the pest or weed control at 31 g/ha ([5]; post-emergence, Postemergence, scale 0 to 100 (0 no effect, 100 complete control), read-out: Galium plant response rating) was 85% and the pest or weed control at 62 g/ha [5, 18] was 90%. It also gave a pest or weed control at 125 g/ha [5, 18] of 95%, a pest or weed control at 125 g/ha ([5]; pre-emergence, Preemergence, read-out: Plant response rating (scale 0 to 100), Galium) of 98% and a pest or weed control at 16 g/ha ([5]; pre-emergence, Preemergence, 16 g ai/ha, scale 0 to 100 (0 no effect, 100 complete control), read-out: Plant response rating, Galium) of 95%. It also gave a pest or weed control at 31 g/ha [5, 19] of 98%, a pest or weed control at 62 g/ha [5, 19] of 98% and a pest or weed control at 31 g/ha ([6]; post-emergence, Postemergence, scale 0 to 100 (0 no effect, 100 complete control), read-out: Nutsedge, Yellow plant response rating) of 5%. It also gave a pest or weed control at 62 g/ha [6, 20] of 5%, a pest or weed control at 125 g/ha [6, 20] of 5% and a pest or weed control at 125 g/ha ([6]; pre-emergence, Preemergence, read-out: Plant response rating (scale 0 to 100), Nutsedge, Yellow) of 85%. The pest or weed control at 16 g/ha ([6]; pre-emergence, Preemergence, 16 g ai/ha, scale 0 to 100 (0 no effect, 100 complete control), read-out: Plant response rating, Nutsedge, Yellow) was 15%, the pest or weed control at 31 g/ha [6, 21] was 30% and the pest or weed control at 62 g/ha [6, 21] was 50%. The pest or weed control at 31 g/ha ([7]; post-emergence, Postemergence, scale 0 to 100 (0 no effect, 100 complete control), read-out: Ryegrass, Italian plant response rating) was 5%, the pest or weed control at 62 g/ha [7, 22] was 10% and the pest or weed control at 125 g/ha [7, 22] was 10%. It also gave a pest or weed control at 125 g/ha ([7]; pre-emergence, Preemergence, read-out: Plant response rating (scale 0 to 100), Ryegrass, Italian) of 98%, a pest or weed control at 16 g/ha ([7]; pre-emergence, Preemergence, 16 g ai/ha, scale 0 to 100 (0 no effect, 100 complete control), read-out: Plant response rating, Ryegrass, Italian) of 5% and a pest or weed control at 31 g/ha [7, 23] of 60%. The pest or weed control at 62 g/ha [7, 23] was 80%, the pest or weed control at 31 g/ha ([8]; post-emergence, Postemergence, scale 0 to 100 (0 no effect, 100 complete control), read-out: Morningglory plant response rating) was 85% and the pest or weed control at 62 g/ha ([8]; post-emergence, Postemergence, scale 0 to 100, 0 no effect, 100 complete control, read-out: Plant response rating, Morningglory) was 85%. For the same compound, the pest or weed control at 125 g/ha ([8]; pre-emergence, Preemergence, 125 g ai/ha, read-out: Plant response rating (scale 0 to 100), Morningglory) was 100%, the pest or weed control at 16 g/ha ([8]; pre-emergence, Preemergence, 16 g ai/ha, scale 0 to 100 (0 no effect, 100 complete control), read-out: Plant response rating, Morningglory) was 20% and the pest or weed control at 31 g/ha [8, 24] was 75%. It also gave a pest or weed control at 62 g/ha [8, 24] of 100%.
